Data as given in patent US20250302728A1, “FRAGRANCE COMPOSITIONS AND PRODUCTS CONVEYING A POSITIVE MOOD” (SYMRISE AG, priority 2022, published 2025).

Columns and labels:
subject's mood [1] = assay: Actimood scoring (correlation of EmoChar and IRT values); assay type: in vivo, human
Procedure: (§1) 1. Sensorial and Emotional Evaluation of Fragrance Raw Materials Each fragrance was evaluated by 30 subjects. At each appointment, the subject discovered fragrances in one sequence of four fragrances and two sequences of three fragrances separated by a 10-minute break.
(§2) For each fragrance, the subject discovered each fragrance on a card strip for 10 seconds. Between each product, a rest-period of 2 minutes was carried out during which the subject smelt their own body odour by smelling their wrist and the subject drank a little bit of water as well.
Emochar™ is a system of emotional characterization, scoring 7 main emotional dimensions from 0 to 10: • Stimulation: focus, attention, and awakening. • Relaxation: serenity, relaxation and appeasing. • Sensual: arousing, sexy and erotic. • Pleasure: liking, “gourmand” and satisfaction. • Tenderness: gentleness and softness. • Joy: excitement, fun and enthusiasm. • Self-esteem: confidence and assurance
Actimood scores are based on a correlation of EmoChar™ and IRT values. The scores are classified on a scale from 0 (low impact on subject's mood) to 3 (high impact on subject's mood).
Each score is obtained according to an algorithm, mixing verbal and non-verbal responses of volunteers to a specific product, or stimulus in a given context. The algorithm was developed from extensive field data, and in accordance with scientific literature and validated biobehavioral patterns associated to various emotional states.

subject's mood [2] = assay: Implicit response test (IRT); assay type: in vivo, human; design: scale not given here
Procedure: as §1
During those appointments, the subjects smelt the fragrances in a random way.
as §2
The evaluation is carried out in standardized lighting conditions and under a monitored temperature (temperature 21±1.5° C.).
Implicit response tests (IRTs) are a family of tests and assess the subjects' immediate, “gut instinct” responses the fragrance raw materials.
The alleged underlying processes are based on how neurosciences describe the way our brain processes information. Indeed, our brain processes information through two systems: System 2, which is slow and processes conscious information, and System 1, which is fast and processes non-conscious information.
The IRT tests are performed at a computer, where the following words appear on the computer screen: • Energizing • Relaxing • Attractive • Sensual • Joyful • Protective • Confident • Fresh • Well-being
The subject has to click on the screen with the computer mouse to indicate their accordance or not of the word with the tested fragrance. In addition, the times to click the button are recorded.

[3] = joyful mood (Table 6), scale 0 (low impact) to 3 (high impact)
[4] = sensual mood (Table 8), scale 0 (low impact) to 3 (high impact)
[5] = well-being mood (Table 10), scale 0 (low impact) to 3 (high impact)
[6] = ingredients of the fragrance composition conveying a fresh mood (Table 1)
[7] = energizing mood (Table 7), scale 0 (low impact) to 3 (high impact)
[8] = fresh mood (Table 12), scale 0 (low impact) to 3 (high impact)
[9] = ingredients of the fragrance composition conveying an attractive mood (Table 2)
[10] = attractive mood (Table 11), scale 0 (low impact) to 3 (high impact)
[11] = protective mood (Table 5), scale 0 (low impact) to 3 (high impact)
[12] = relaxing mood (Composition 2, Table 4), scale 0 (low impact) to 3 (high impact)
[13] = self-confident mood (Table 9), scale 0 (low impact) to 3 (high impact)
[14] = relaxing and sleep enhancing mood (Composition 1, Table 3), scale 0 (low impact on subject's mood) to 3 (high impact)

CC(=O)C1(C)CC2=C(CCCC2(C)C)CC1C (centres unmarked) [ISO E SUPER, 1-[2,3,8,8-tetramethyl-1,3,4,5,6,7-hexanhydronaphthalen-2-yl]ethanone]
Actimood score (subject's mood [1]; [3]): 2
Actimood score (subject's mood [1]; [4]): 2
Actimood score (subject's mood [1]; [5]): 2

Cc1ccc2c(c1)OCC(=O)CO2 [CALONE, 7-methyl-1,5-benzodioxepin-3-one]
IRT Score (subject's mood [2]; [6]): 2830
Actimood score (subject's mood [1]; [7]): 3
Actimood score (subject's mood [1]; [8]): 3
Actimood score (subject's mood [1]; [3]): 3
Actimood score (subject's mood [1]; [5]): 3

O=Cc1ccc2c(c1)OCO2 [HELIOTROPIN, 1,3-benzodioxole-5-carbaldehyde]
Actimood score (subject's mood [1]; [5]): 2

CC(C=O)Cc1ccc2c(c1)OCO2 (centres unmarked) [3-(1,3-benzodioxol-5-yl)-2-methyl-propanal]
IRT Score (subject's mood [2]; [6]): 742

CC(C=O)Cc1ccc(C(C)C)cc1 (centres unmarked) [CYCLAMEN ALDEHYDE, 3-(4-isopropylphenyl)-2-methyl-propanal]
IRT Score (subject's mood [2]; [6]): 1005
Actimood score (subject's mood [1]; [8]): 3

O=C1CCCCCCCCCCCCCCO1 [MACROLIDE ® SUPRA, Pentadecan-15-olide]
IRT Score (subject's mood [2]; [9]): 1944
Actimood score (subject's mood [1]; [10]): 3
Actimood score (subject's mood [1]; [11]): 2
Actimood score (subject's mood [1]; [12]): 3
Actimood score (subject's mood [1]; [5]): 2

O=C(OCc1ccccc1)c1ccccc1O [BENZYL SALICYLATE, benzyl 2-hydroxybenzoate]
Actimood score (subject's mood [1]; [13]): 1

O=c1ccc2ccccc2o1 [COUMARIN, chromen-2-one]
IRT Score (subject's mood [2]; [9]): 1347
Actimood score (subject's mood [1]; [10]): 3
Actimood score (subject's mood [1]; [12]): 3

CC(C)=CCC/C(C)=C/C=O [CITRAL FF, (2E)-3,7-Dimethylocta-2,6-dienal]
IRT Score (subject's mood [2]; [6]): 2393
Actimood score (subject's mood [1]; [7]): 3
Actimood score (subject's mood [1]; [8]): 3

Cc1cccc(CC(C)(C)CO)c1 [MAJANTOL ®, beta,beta-3-Trimethyl-benzenepropanol]
Actimood score (subject's mood [1]; [13]): 2
Actimood score (subject's mood [1]; [4]): 2

CC/C=C\CCOC(=O)OC [LEAFOVERT ®, (Z)-Hex-3-en-1-yl methyl carbonate]
Actimood score (subject's mood [1]; [3]): 3
Actimood score (subject's mood [1]; [13]): 0
Actimood score (subject's mood [1]; [5]): 2

CCCCCCC1OC(=O)CC1C (centres unmarked) [APRIFLOREN ®, 5-Hexyldihydro-4-methylfuran-2(3H)-one]
Actimood score (subject's mood [1]; [3]): 2
Actimood score (subject's mood [1]; [13]): 2

CC(=O)C1CC/C(C)=C/CC/C(C)=C/C/C=C/1C (centres unmarked) [TRIMOFIX O, 1-[(2E,5E,9E)-2,6,10-trimethylcyclododeca-2,5,9-trien-1-yl]ethanone]
Actimood score (subject's mood [1]; [11]): 2

CCCCCCOC(C)=O [HEXYL ACETATE, hexyl acetate]
Actimood score (subject's mood [1]; [7]): 1
Actimood score (subject's mood [1]; [3]): 2

CC1COCc2cc3c(cc21)C(C)(C)C(C)C3(C)C (centres unmarked) [GALAXOLIDE PURE, 4,6,6,7,8,8-hexamethyl-1,3,4,7-tetrahydrocyclopenta[G]isochromene]
Actimood score (subject's mood [1]; [11]): 2
Actimood score (subject's mood [1]; [12]): 3

CC/C=C\CCOC(C)=O [HEXENYL ACETATE CIS-3 10% DPG, Hexenyl acetat]
Actimood score (subject's mood [1]; [5]): 0

O=C1CCCCCCCCCCCC(=O)OCCO1 [ETHYLENE BRASSYLATE, 1,4-dioxacycloheptadecane-5,17-dione]
IRT Score (subject's mood [2]; [9]): 1177
Actimood score (subject's mood [1]; [10]): 3
Actimood score (subject's mood [1]; [14]): 2
Actimood score (subject's mood [1]; [13]): 2
Actimood score (subject's mood [1]; [4]): 3

CCCCC[C@@H]1C(=O)CC[C@H]1CC(=O)OC (racemic) [HEDIONE, methyl-2-[RAC-(1S,2S)-3-oxo-2-pentyl-cyclopentyl]acetate]
Actimood score (subject's mood [1]; [8]): 2
Actimood score (subject's mood [1]; [3]): 0
Actimood score (subject's mood [1]; [14]): 2
Actimood score (subject's mood [1]; [5]): 0

CC/C=C/CCO [HEXENOL CIS-3 10% DPG, Hexenol]
Actimood score (subject's mood [1]; [5]): 0

CCCC(C)C(=O)OCC (centres unmarked) [MANZANATE, ethyl-2-methylpentanoate]
Actimood score (subject's mood [1]; [3]): 3

COC(=O)c1ccccc1N [METHYL ANTHRANILATE, Methyl anthranilate]
Actimood score (subject's mood [1]; [13]): 0

COC(=O)c1c(C)cc(O)c(C)c1O [EVERNYL 10% DPG, Methyl-2,4-dihydroxy-3,6-dimethyl-benzoate]
Actimood score (subject's mood [1]; [14]): 1

CC(C)C1CC=C(CCC=O)CC1 (single isomer, unassigned; (+)) [LILYBELLE ®, (+)-3-(4-Isopropylcyclohexen-1-yl)propanal]
Actimood score (subject's mood [1]; [8]): 3
Actimood score (subject's mood [1]; [5]): 0

CC(C)CCC1CCC(O)CC1 (centres unmarked) [SYMROSE ®, 4-Isopentylcyclohexanol]
Actimood score (subject's mood [1]; [14]): 2

COc1ccc(CCC(C)=O)cc1 [FRAMBINON ®, Methoxyphenylbutanone]
Actimood score (subject's mood [1]; [3]): 3

CC1=CC(C)C(C=O)CC1 (centres unmarked) [VERTOCITRAL, 2,4-Dimethylcyclohex-3-ene-1-carbaldehyde]
Actimood score (subject's mood [1]; [7]): 1
Actimood score (subject's mood [1]; [5]): 0

C=C1CCC=C(C)CCC2C1CC2(C)C (centres unmarked) [CARYOPHYLLENE NAT. RECT., 4,11,11-trimethyl-8-methylene-bicyclo[7.2.0]undec-4-ene]
Actimood score (subject's mood [1]; [12]): 3
Actimood score (subject's mood [1]; [13]): 3

O=C1CCCCCCCC=CCCCCCCO1 [AMBRETTOLIDE HC SUPREME, Oxacycloheptadec-10-en-2-one]
Actimood score (subject's mood [1]; [14]): 2

CC(=O)/C=C/C1C(C)=CCCC1(C)C (stereo not drawn) [IONONE ALPHA, (E)-4-(2,6,6-trimethylcyclohex-2-en-1-yl)but-3-en-2-one]
Actimood score (subject's mood [1]; [12]): 3
Actimood score (subject's mood [1]; [13]): 1

C=CCCCCOC(=O)C(C)CC (centres unmarked) [FRUCTATE ®, Hex-5-enyl 2-methylbutanoate]
Actimood score (subject's mood [1]; [4]): 0

CCc1ccc(CC(C)(C)C=O)cc1 [FLORALOZONE, 3-(4-ethylphenyl)-2,2-dimethylpropanal]
Actimood score (subject's mood [1]; [8]): 3

OCCc1ccccc1 [PHENYLETHYL ALCOHOL BA FREE, 2-phenylethanol]
Actimood score (subject's mood [1]; [14]): 2
Actimood score (subject's mood [1]; [13]): 1

CC(C)(C)c1ccc(CCC=O)cc1 [BOURGEONAL, 3-(4-tert-butylphenyl)propanal]
IRT Score (subject's mood [2]; [9]): 1045
Actimood score (subject's mood [1]; [10]): 3
Actimood score (subject's mood [1]; [12]): 3
Actimood score (subject's mood [1]; [13]): 2

CC(=O)/C=C/C1=C(C)CCCC1(C)C [IONONE BETA, (E)-4-(2,6,6-trimethylcyclohexen-1-yl)but-3-en-2-one]
Actimood score (subject's mood [1]; [3]): 3
Actimood score (subject's mood [1]; [5]): 3

C=CC(C)(O)CCC=C(C)CC (mixture of isomers) [ETHYL LINALOOL, (6E)-3,7-dimethylnona-1,6-dien-3-ol]
IRT Score (subject's mood [2]; [6]): 1682
IRT Score (subject's mood [2]; [9]): 565
Actimood score (subject's mood [1]; [10]): 2
Actimood score (subject's mood [1]; [7]): 1
Actimood score (subject's mood [1]; [8]): 3
Actimood score (subject's mood [1]; [3]): 2

CCCCCCCC1CCC(=O)O1 (centres unmarked) [ALDEHYDE C14 SO-CALLED, 5-heptyltetrahydrofuran-2-one]
Actimood score (subject's mood [1]; [13]): 2

CC(CC=O)CCCC(C)(C)O (centres unmarked) [HYDROXY CITRONELLAL, 7-hydroxy-3,7-dimethyl-octanal]
IRT Score (subject's mood [2]; [9]): 1283
Actimood score (subject's mood [1]; [10]): 3
Actimood score (subject's mood [1]; [13]): 1

CCCCCCCCC1CCC(=O)O1 (centres unmarked) [DODECALACTONE GAMMA 10% DPG, gamma-Dodecalactone]
Actimood score (subject's mood [1]; [14]): 1

CC(C)=CCCC(C)CCO (centres unmarked) [CITRONELLOL 950, 3,7-dimethyloct-6-en-1-ol]
Actimood score (subject's mood [1]; [13]): 1

CC(=O)OC1CCC(C(C)(C)C)CC1 (centres unmarked) [ORYCLON HC, (4-tert-butylcyclohexyl) acetate]
Actimood score (subject's mood [1]; [14]): 1

CCC(=O)OCC(C)(C)OC(C)C1CCCC(C)(C)C1 (centres unmarked) [HELVETOLIDE, [2-[1-(3,3-dimethylcyclohexyl)ethoxy]-2-methyl-propyl]propanoate]
Actimood score (subject's mood [1]; [11]): 2
Actimood score (subject's mood [1]; [14]): 3
Actimood score (subject's mood [1]; [12]): 3
Actimood score (subject's mood [1]; [13]): 2

COC(OC)C(C)(C)CC=C(C)C [AMAROCIT ®, 6,6-Dimethoxy-2,5,5-trimethylhex-2-ene]
IRT Score (subject's mood [2]; [6]): 1763
Actimood score (subject's mood [1]; [7]): 3
Actimood score (subject's mood [1]; [8]): 3

C=CC(C)CCCC(C)(C)O (centres unmarked) [DIHYDRO MYRCENOL, 2,6-dimethyloct-7-en-2-ol]
IRT Score (subject's mood [2]; [9]): 1599
Actimood score (subject's mood [1]; [10]): 3
Actimood score (subject's mood [1]; [7]): 3
Actimood score (subject's mood [1]; [4]): 3
